The source of these data is patent US7192942B2, “Process for production of crystals of 11μ-benzaldoxim-estra-4,9-diene derivatives, crystals obtained thereby and pharmaceutical preparations containing them” (Schering AG, priority 2002, dated 2007).

The nature of data set [1]: Active ingredient release (dissolution) of 1 mg capsules and tablets. Format: physicochemical. The following applies: 0.3% SDS in water, paddle, 100 rpm. As to the method:
The release values were compared in a test medium, which comprises 0.3% SDS in water, with paddle stirrIng, 100 rpm.
Active Ingredient Release:
Active ingredient release measured in 1000 mL water with 0.3% sodium dodecyl sulfate, 100 rpm
Content Determination by HPLC with external calibration
Column: LiChrosphere 5μ RP-18 encapped, 150×3 mm
Eluent: acetonitrile/water=45/55

For data set [2] the following is noted: in comparison to RU 486 (mifeprison); cited from earlier work.
Another data set concerns the target T1, progesterone receptor (Homo sapiens, UniProt P06401).
T1 sequence (P06401 1-933): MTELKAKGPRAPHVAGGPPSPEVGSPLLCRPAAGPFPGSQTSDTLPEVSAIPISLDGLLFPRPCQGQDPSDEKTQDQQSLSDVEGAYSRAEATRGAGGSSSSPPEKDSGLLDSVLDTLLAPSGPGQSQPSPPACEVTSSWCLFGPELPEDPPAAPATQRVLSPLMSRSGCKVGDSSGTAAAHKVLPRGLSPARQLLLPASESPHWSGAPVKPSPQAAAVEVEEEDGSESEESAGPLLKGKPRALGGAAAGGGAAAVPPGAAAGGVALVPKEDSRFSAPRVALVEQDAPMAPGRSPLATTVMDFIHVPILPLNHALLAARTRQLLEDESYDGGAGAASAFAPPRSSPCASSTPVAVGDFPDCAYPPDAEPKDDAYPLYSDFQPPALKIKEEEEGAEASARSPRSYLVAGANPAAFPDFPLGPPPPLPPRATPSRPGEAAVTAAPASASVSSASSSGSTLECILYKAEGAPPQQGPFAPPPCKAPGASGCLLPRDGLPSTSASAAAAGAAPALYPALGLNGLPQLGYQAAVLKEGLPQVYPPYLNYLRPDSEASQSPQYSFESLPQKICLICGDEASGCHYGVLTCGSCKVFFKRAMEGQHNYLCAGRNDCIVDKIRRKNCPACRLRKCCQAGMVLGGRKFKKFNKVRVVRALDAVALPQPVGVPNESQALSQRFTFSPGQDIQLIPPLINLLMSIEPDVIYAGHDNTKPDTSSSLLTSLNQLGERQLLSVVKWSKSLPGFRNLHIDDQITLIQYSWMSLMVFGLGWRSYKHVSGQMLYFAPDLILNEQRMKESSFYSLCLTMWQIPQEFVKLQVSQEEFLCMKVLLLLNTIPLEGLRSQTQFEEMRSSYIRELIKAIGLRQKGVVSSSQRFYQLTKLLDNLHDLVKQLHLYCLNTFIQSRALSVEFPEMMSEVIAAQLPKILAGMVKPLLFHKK
The settings on record: in comparison to RU 486; cited from earlier work.

Data set [3] deals with T2, progesterone receptor (PR) (Homo sapiens, UniProt P06401).
T2 sequence (P06401 1-933): T1 sequence (P06401 1-933)
The following applies: cited from earlier work.

Data set [4] can be described thus: Stability of medicinal preparations under ICH conditions. Format: physicochemical. The settings on record: 40° C., 70% relative humidity; decomposition of carbamate to nitrile. The source says: The carbamate functional group of the above-mentioned 11β-benz-aldoxim-estra-4,9-diene derivative decomposes to form a nitrile by splitting off ethylamine and CO2.
The mark [5] stands for this setting: 1 mg capsule, microcrystalline J956, particle diameter X50 3.4 μm, X100 25 μm.
[6] abbreviates: 1 mg capsule, microcrystalline J956, particle diameter X50 5.2 μm, X100 30 μm.
Setting [7] is: 1 mg capsule, microcrystalline J956, particle diameter X50 6.6 μm, X100 43 μm.
Where [8] appears, read: 1 mg capsule, microcrystalline J956, particle diameter X50 8.7 μm, X100 43 μm.
Setting [9] is: 1 mg capsule, microcrystalline J956, particle diameter X50 14.1 μm, X100 87 μm.
[10] abbreviates: 1 mg tablet, microcrystalline J956, particle diameter X50 10.6 μm, X100 73 μm.
Setting [11] is: 1 mg capsule with micronized effective ingredient J956.
Setting [12] is: 1 mg tablet with micronized effective ingredient J956.

As for `CCNC(=O)ON=Cc1ccc(C2CC3(C)C(CCC3(COC)OC)C3CCC4=CC(=O)CCC4=C23)cc1` (stereo not drawn) [J956, 11β-{4-[(ethylamino-carbonyl)oximinomethyl]phenyl}-17β-methoxy-17α-methoxymethyl-estra-4,9-dien-3-one], the “RELEASE in % 0 min” value in data set [1] (setting [5]), in data set [1] (setting [6]), in data set [1] (setting [7]), in data set [1] (setting [8]), in data set [1] (setting [9]) and in data set [1] (setting [10]) was 0% each time. Besides, the “RELEASE in % 10 min” value stood at 90.7% in data set [1] (setting [5]); 89.8% in data set [1] (setting [6]); 93.2% in data set [1] (setting [7]); 93.5% in data set [1] (setting [8]); 90.2% in data set [1] (setting [9]); 73.7% in data set [1] (setting [10]). Moreover, the “RELEASE in % 20 min” value is reported as 97.3% in data set [1] (setting [5]); 93.5% in data set [1] (setting [6]); 95.9% in data set [1] (setting [7]); 96.7% in data set [1] (setting [8]); 95.3% in data set [1] (setting [9]); 90.3% in data set [1] (setting [10]). Moreover, the “RELEASE in % 30 min” value in data set [1] (setting [5]) was determined as 98.1%; in data set [1] (setting [6]), 93.4%; in data set [1] (setting [7]) it was 96.7%; in data set [1] (setting [8]), 98.5%; in data set [1] (setting [9]), 96.0%; in data set [1] (setting [10]), 91.85%. In addition, the “RELEASE in % 45 min” value in data set [1] (setting [5]) is 99.9%; in data set [1] (setting [6]), 95.6%; in data set [1] (setting [7]), 96.8%; in data set [1] (setting [8]), 99.7%; in data set [1] (setting [9]), 96.3%; in data set [1] (setting [10]), 96.6%. In addition, in data set [2], the antiglucocorticoid activity entry is listed as “considerably reduced antiglucocorticoid activity”. Further, at progesterone receptor, the “activity at the progesterone receptor” value was “same activity as RU 486”. Further, the “activity in vivo at the progesterone receptor (PR)” value in data set [3] is “both agonistic and also antagonistic activity”.
For `CCNC(=O)O/N=C/c1ccc([C@H]2C[C@@]3(C)[C@@H](CC[C@]3(COC)OC)[C@@H]3CCC4=CC(=O)CCC4=C32)cc1` [Micronizate], in data set [1] (setting [11]), the “RELEASE in % 0 min” value worked out at 0%, the “RELEASE in % 10 min” value was 92.1%, the “RELEASE in % 20 min” value stood at 94.3% and the “RELEASE in % 30 min” value was 94.6%. Besides, the “RELEASE in % 45 min” value in data set [1] (setting [11]) stood at 94.9%. Moreover, in data set [1] (setting [12]), the “RELEASE in % 0 min” value worked out at 0%, the “RELEASE in % 10 min” value amounted to 92.1%, the “RELEASE in % 20 min” value stood at 94.3% and the “RELEASE in % 30 min” value was 94.6%. The “RELEASE in % 45 min” value in data set [1] (setting [12]) is recorded as 94.9%. Moreover, in data set [4], the “stability of effective ingredient in medicinal preparations under ICH” value is given as “not sufficiently stable”.
